Measurements as given in patent publication US11629143B2, “HipK4 inhibitors and uses thereof” (Vibliome Therapeutics, LLC, priority 2020, dated 2023).

What was measured:
Test in all cases: Kinase panel (mobility shift)
Assay type in all cases: biochemical
TAOK3 = target: T1, TAOK3 (Homo sapiens, UniProt Q9H2K8)
T1 sequence (Q9H2K8 1-898): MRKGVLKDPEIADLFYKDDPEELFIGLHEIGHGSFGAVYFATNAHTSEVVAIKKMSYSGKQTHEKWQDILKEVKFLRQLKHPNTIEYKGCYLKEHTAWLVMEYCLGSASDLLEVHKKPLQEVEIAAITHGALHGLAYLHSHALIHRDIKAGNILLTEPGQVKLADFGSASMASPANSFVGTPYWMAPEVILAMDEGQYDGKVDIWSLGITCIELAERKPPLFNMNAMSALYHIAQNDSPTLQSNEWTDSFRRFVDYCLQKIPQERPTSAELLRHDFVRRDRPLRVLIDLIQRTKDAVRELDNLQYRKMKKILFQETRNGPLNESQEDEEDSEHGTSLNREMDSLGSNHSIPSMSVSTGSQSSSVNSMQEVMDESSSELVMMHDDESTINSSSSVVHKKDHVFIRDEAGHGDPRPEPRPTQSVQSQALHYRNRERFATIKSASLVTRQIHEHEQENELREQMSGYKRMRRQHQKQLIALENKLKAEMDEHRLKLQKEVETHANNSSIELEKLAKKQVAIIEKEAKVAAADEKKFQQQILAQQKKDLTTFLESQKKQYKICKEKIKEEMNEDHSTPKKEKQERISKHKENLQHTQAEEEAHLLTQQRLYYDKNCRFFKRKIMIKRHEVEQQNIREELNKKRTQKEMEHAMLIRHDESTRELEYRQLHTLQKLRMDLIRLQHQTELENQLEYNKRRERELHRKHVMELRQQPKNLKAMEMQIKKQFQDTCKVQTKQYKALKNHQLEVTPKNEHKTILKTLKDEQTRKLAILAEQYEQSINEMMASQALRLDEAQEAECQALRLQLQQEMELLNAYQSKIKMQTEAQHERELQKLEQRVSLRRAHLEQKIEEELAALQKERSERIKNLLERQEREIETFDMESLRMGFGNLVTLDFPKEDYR
Outline: (§1)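 Each kinase was incubated with a fluorescently labeled substrate and compound in a standard reaction mix. After the reaction was stopped, product and substrate were separated on microfluidic chips by electrophoretic mobility shift. Activity came from comparing product and substrate peak fluorescence, graded A (95% or greater), B (90%-94%) or C (80%-89%) at 5 um.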

DDR2 = target: T2, DDR2 (Homo sapiens, UniProt Q16832)
T2 sequence (Q16832 22-855): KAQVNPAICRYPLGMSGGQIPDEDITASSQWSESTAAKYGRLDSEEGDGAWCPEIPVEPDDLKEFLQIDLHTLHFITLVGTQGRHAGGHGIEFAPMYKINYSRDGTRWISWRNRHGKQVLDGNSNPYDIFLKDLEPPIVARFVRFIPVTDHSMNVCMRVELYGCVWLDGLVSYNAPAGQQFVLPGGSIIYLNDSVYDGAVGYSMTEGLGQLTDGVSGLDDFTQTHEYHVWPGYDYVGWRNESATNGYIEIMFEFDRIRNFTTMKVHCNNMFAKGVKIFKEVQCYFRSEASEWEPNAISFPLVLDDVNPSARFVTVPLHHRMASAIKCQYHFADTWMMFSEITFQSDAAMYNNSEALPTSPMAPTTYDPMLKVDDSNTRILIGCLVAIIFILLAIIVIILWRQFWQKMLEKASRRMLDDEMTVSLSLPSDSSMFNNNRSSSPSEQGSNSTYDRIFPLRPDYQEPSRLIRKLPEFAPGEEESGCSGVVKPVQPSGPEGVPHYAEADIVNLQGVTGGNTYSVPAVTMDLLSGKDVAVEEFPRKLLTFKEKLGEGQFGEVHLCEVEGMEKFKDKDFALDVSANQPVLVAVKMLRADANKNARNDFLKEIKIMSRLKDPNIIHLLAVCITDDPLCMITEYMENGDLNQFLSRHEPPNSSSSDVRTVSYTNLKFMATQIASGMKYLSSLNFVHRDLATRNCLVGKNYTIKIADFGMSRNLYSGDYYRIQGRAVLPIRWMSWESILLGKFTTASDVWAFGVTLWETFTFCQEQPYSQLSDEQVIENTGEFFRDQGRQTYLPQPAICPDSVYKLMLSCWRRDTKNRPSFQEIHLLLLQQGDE
Outline: as §1

EPH-B4 = target: T3, EPH-B4 (Homo sapiens, UniProt P54760)
T3 sequence (P54760 16-987): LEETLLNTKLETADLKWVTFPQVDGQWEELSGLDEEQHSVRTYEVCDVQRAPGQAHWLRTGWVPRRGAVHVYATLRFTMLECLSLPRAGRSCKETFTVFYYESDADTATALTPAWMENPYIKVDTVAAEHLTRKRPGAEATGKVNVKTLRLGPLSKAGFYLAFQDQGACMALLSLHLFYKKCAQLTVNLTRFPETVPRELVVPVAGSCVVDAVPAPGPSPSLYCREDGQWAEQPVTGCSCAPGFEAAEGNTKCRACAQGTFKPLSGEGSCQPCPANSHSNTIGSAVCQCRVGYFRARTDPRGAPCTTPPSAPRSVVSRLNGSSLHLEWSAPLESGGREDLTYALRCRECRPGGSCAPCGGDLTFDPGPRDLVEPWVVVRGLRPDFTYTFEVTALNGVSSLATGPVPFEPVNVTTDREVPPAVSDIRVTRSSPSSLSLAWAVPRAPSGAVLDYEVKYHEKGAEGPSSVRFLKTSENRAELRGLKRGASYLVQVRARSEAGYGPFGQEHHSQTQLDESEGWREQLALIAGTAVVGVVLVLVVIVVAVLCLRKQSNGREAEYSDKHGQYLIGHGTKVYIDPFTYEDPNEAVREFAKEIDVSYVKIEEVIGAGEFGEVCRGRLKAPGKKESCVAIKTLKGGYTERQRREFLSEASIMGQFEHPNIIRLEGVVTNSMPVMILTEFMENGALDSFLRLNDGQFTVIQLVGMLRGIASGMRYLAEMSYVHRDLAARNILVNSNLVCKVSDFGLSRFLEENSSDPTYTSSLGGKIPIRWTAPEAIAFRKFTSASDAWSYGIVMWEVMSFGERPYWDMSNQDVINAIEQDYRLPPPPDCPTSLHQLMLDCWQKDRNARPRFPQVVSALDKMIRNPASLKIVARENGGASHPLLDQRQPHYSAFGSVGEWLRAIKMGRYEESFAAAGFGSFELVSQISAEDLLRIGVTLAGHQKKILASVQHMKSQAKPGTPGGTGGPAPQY
Outline: as §1

| inhibition at 5 µM (TAOK3) [%] | inhibition at 5 µM (DDR2) [%] | inhibition at 5 µM (EPH-B4) [%] | Structure (SMILES) |
| --- | --- | --- | --- |
| 50 to 79 | 50 to 79 | < 50 | CSc1nc(C(=O)Nc2ccc(Oc3ccnc(C(=O)NC4CNC4)c3)c(F)c2)c(-c2ccc(F)cc2)o1 [Compound 29] |
| < 50 | 50 to 79 | < 50 | [2H]C([2H])([2H])NC(=O)c1cc(Oc2ccc(NC(=O)c3nc(SC)oc3-c3ccc(F)s3)cc2F)ccn1 [Compound 35] |
| < 50 | < 50 | < 50 | CNC(=O)c1cc(Oc2ccc(NC(=O)c3nc(SC)oc3-c3ccc(F)s3)cc2F)ccn1 [Compound 16] |
| < 50 | 50 to 79 | < 50 | CSc1nc(C(=O)Nc2ccc(Oc3cc4cnn(C)c4cc3Br)c(F)c2)c(-c2ccc(F)cc2)o1 [Compound 2] |
| < 50 | < 50 | < 50 | CNC(=O)c1ccc(Oc2ccc(NC(=O)c3nc(Cl)oc3-c3ccc(F)cc3)c(F)c2)cn1 [Compound 36] |
| 90 to 94 | ≥ 95 | 50 to 79 | CNC(=O)c1cc(Oc2ccc(NC(=O)c3nc(NC)oc3-c3ccc(F)cc3)cc2F)ccn1 [Compound 14] |
| 50 to 79 | 80 to 89 | 50 to 79 | CNC(=O)c1cc(Oc2ccc(NC(=O)c3nc(OC4CC4)oc3-c3ccc(F)cc3)cc2F)ccn1 [Compound 32] |
| < 50 | 50 to 79 | < 50 | CSc1nc(C(=O)Nc2ccc(Oc3ccnc(C(=O)NCC(F)(F)F)c3)c(F)c2)c(-c2ccc(F)cc2)o1 [Compound 40] |
| < 50 | 50 to 79 | < 50 | CSc1nc(C(=O)Nc2ccc(Oc3ccnc(C(=O)NC4CCN(C)CC4)c3)c(F)c2)c(-c2ccc(F)cc2)o1 [Compound 42] |
| < 50 | 80 to 89 | 50 to 79 | CNC(=O)c1cc(Oc2ccc(NC(=O)c3nc(S(C)(=O)=O)sc3-c3ccc(F)cc3)cc2F)ccn1 [Compound 13] |
| 50 to 79 | 50 to 79 | < 50 | CSc1nc(C(=O)Nc2ccc(Oc3ccnc(C(=O)NCCN(C)C)c3)c(F)c2)c(-c2ccc(F)cc2)o1 [Compound 41] |
| 50 to 79 | 80 to 89 | 50 to 79 | CNC(=O)c1cc(Oc2ccc(NC(=O)c3nc(SC)oc3-c3ccc(F)cc3F)cc2F)ccn1 [Compound 12] |
| < 50 | 80 to 89 | < 50 | CNC(=O)c1cc(Oc2ccc(NC(=O)c3nc(OC)oc3-c3ccc(F)c(F)c3)cc2F)ccn1 [Compound 24] |
| 50 to 79 | 80 to 89 | 50 to 79 | CNC(=O)c1cc(Oc2c(F)cc(NC(=O)c3nc(NC)sc3-c3ccc(F)cc3)cc2F)ccn1 [Compound 19] |
| < 50 | < 50 | < 50 | COc1nc(C(=O)Nc2ccc(Oc3ccnc(C(=O)NCC(F)(F)F)c3)c(F)c2)c(-c2ccc(F)cc2)o1 [Compound 43] |
| < 50 | 80 to 89 | < 50 | CNC(=O)c1cc(Oc2ccc(NC(=O)c3nc(SC)oc3-c3ccc(F)cc3F)cc2)ccn1 [Compound 6] |
| < 50 | 80 to 89 | < 50 | CNC(=O)c1cc(Oc2ccc(NC(=O)c3nc(SC)oc3-c3ccc(F)cc3Cl)cc2)ccn1 [Compound 3] |
| < 50 | < 50 | < 50 | CSc1nc(C(=O)Nc2ccc(Oc3ccnc(C(=O)NC4COC4)c3)c(F)c2)c(-c2ccc(F)c(F)c2)o1 [Compound 37] |
| < 50 | 50 to 79 | 50 to 79 | CNC(=O)c1cc(Oc2ccc(NC(=O)c3nc(OCC(F)(F)F)oc3-c3ccc(F)cc3)cc2F)ccn1 [Compound 38] |
| 50 to 79 | 50 to 79 | < 50 | CNC(=O)c1cc(Oc2ccc(NC(=O)c3nc(NC)sc3-c3ccc(F)cc3F)cc2F)ccn1 [Compound 21] |
| 80 to 89 | 50 to 79 | 80 to 89 | CNC(=O)c1cc(Oc2ccc(NC(=O)c3nc(SC(C)C)oc3-c3ccc(F)cc3)cc2F)ccn1 [Compound 34] |
| < 50 | 80 to 89 | < 50 | CNC(=O)c1cc(Oc2ccc(NC(=O)c3nc(SC)oc3-c3ccc(Cl)s3)cc2)ccn1 [Compound 5] |
| 80 to 89 | 90 to 94 | 80 to 89 | CNC(=O)c1cc(Oc2ccc(NC(=O)c3nc(COC)oc3-c3ccc(F)cc3)cc2F)ccn1 [Compound 30] |
| < 50 | 50 to 79 | < 50 | CSc1nc(C(=O)Nc2ccc(Oc3ccnc(N)c3Cl)c(F)c2)c(-c2ccc(F)cc2)o1 [Compound 1] |
| < 50 | ≥ 95 | 80 to 89 | CSc1nc(C(=O)Nc2ccc(Oc3ccnc(-c4cnn(C)c4)c3)c(F)c2)c(-c2ccc(F)cc2)o1 [Compound 11] |
| < 50 | < 50 | < 50 | CSc1nc(C(=O)Nc2ccc(Oc3ccnc(C(=O)NC4COC4)c3)c(F)c2)c(-c2ccc(F)s2)o1 [Compound 28] |
| 50 to 79 | 50 to 79 | 50 to 79 | CNC(=O)c1cc(Oc2ccc(NC(=O)c3nc(NC)sc3-c3ccc(F)cc3C)cc2F)ccn1 [Compound 23] |
| < 50 | 50 to 79 | < 50 | COc1nc(C(=O)Nc2ccc(Oc3ccnc(C(=O)NC4COC4)c3)c(F)c2)c(-c2ccc(F)cc2)o1 [Compound 39] |
